Data from patent publication US6566355B1 (Hoffmann-La Roche Inc., priority 1991, dated 2003).
Structures can show the parent of a compound that is named as a salt. Where two headings read alike, the source gives them in different places.

Columns and labels:
β-lactamase = biological target: T1, β-lactamase (Citrobacter freundii, UniProt P05193); assay: biochemical
T1 construct: Various β-lactamases can be isolated from penicillin- or cephalosporin-resistant bacterial strains such as; endogenous in cells; host or cells: Citrobacter freundii 1203 (enzyme purified from the crude cell extract, after ampicillin induction when necessary)
Experimental: A. Isolation of the β-lactamases
Various β-lactamases can be isolated from penicillin- or cephalosporin-resistant bacterial strains such as Klebsiella pneumoniae NCTC 418, Proteus vulgaris 1028, Bacillus licheniformis 749/C, Escherichia coli SN01 and Citrobacter freundii 1203. For this purpose, the corresponding strains are cultivated in Tryptic Soy Broth (Difco) and harvested by centrifugation in the last logarithmic growth phase (when necessary 50-100 mg/l of ampicillin are added to the medium towards the end of the log-phase in order to induce the β-lactamase). The thus-obtained bacterial mass is treated with 20 mM Tris-HCl buffer (pH 7.0); the cells are broken open with a French press while cooling. The mixture is centrifuged (20,000 r/min.) for 20-30 minutes and a clear crude extract is obtained.
B. Determination of the β-lactamase activity
The determination of the activity of the isolated β-lactamases can be carried out according to the method of O'Callaghan, C. H. et al. [Antimicr. Ag. Chemother., 1, 283-288 (1972)] using the chromogenic cephalosporin nitrocefin (87/312 from Glaxo). The requisite test batch contains per ml of water: 50 mM phosphate buffer (pH 7.0), 0.1 mM nitrocefin and sufficient enzyme (β-lactamase) to achieve a ΔA/min. of about 0.1. The cleavage of the substrate, which is accompanied by a change in colour, is effected at 37° C. and is followed quantitatively at 482 nm using a spectral photometer.
C. Determination of the β-lactamase-inhibiting activity of the compounds of general formula I
The above-described cleavage of the chromogenic substrate by β-lactamases (test B.) can be inhibited by the addition of compounds of general formula I (inhibitors). […] As a measurement for the affinity of the particular tested inhibitor to the β-lactamase, which is a measurement of the strength of the inhibitor, there serves that concentration which inhibits by 50% (IC 50 in nM) the cleavage of the substrate (nitrocefin) effected under the above test conditions (test B) in the absence of an inhibitor. […] The determination of the IC50 was effected by means of a graph.
(Test organism: Citrobacter freundii)

Citrobacter freundii = assay: MIC in vitro of a 1:4 combination of ceftriaxone with a compound of formula I (test D); format: cell-based; conditions: 1:4 combination of ceftriaxone with the compound
Experimental: D. Determination of the β-lactamase-inhibiting activity by combination of a compound of general formula I with ceftriaxone
The minimum inhibitory concentration in vitro (MIC in μg/ml) of a 1:4 combination of ceftriaxone with a compound of formula I against Citrobacter freundii is measured and compiled in Table 2 hereinafter.

[1] = IC 50 nM, isolated β-lactamase of Citrobacter freundii, substrate nitrocefin 0.1 mM, 15 minutes pre-incubation with inhibitor, 37° C., pH 7.0

T1 sequence (P05193 21-381): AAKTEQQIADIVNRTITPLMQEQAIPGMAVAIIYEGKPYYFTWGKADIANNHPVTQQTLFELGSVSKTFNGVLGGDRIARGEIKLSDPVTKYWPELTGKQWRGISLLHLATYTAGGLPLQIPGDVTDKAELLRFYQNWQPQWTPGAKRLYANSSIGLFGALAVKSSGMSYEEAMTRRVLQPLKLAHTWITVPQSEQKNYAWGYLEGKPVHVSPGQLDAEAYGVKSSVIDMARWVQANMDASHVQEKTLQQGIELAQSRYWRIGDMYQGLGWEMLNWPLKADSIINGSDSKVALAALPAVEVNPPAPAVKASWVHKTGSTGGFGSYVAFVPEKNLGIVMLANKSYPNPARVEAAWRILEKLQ

## NC(C(=O)N1CC[C@@H]2[C@H]1C(=O)N2S(=O)(=O)O)c1cccc(O)c1 (mixture of isomers) [6(q), (1S,5R)-2-[DL-2-(m-Hydroxyphenyl)glycyl]-7-oxo-2,6-diazabicyclo[3.2.0]heptane-6-sulphonic acid]
β-lactamase
  IC50: 375 nM
Citrobacter freundii
  MIC: 2 µg/mL

## NC(C(=O)N1CC[C@@H]2[C@H]1C(=O)N2S(=O)(=O)O)c1ccc(O)cc1 (mixture of isomers) [6(s), (1S,5R)-2-[R,S-Amino-(4-hydroxyphenyl)-acetyl]-7-oxo-2,6-diazabicyclo[3.2.0]heptane-6-sulphonic acid sodium salt]
β-lactamase
  IC50: 584 nM
Citrobacter freundii
  MIC: 4 µg/mL

## NC(C(=O)N1CC[C@@H]2[C@H]1C(=O)N2S(=O)(=O)[O-])c1ccccc1F.[Na+] (mixture of isomers) [8(c), (1S,5R)-2-[DL-2-(o-Fluorophenyl)glycyl]-7-oxo-2,6-diazabicyclo[3.2.0]heptane-6-sulphonic acid sodium salt]
β-lactamase; [1]
  IC50: 120 nM
Citrobacter freundii
  MIC: 2 µg/mL

## O=C1SCCC1NC(=O)N1CC[C@@H]2[C@H]1C(=O)N2S(=O)(=O)O (mixture of isomers) [17(j), (1S,5R)-7-Oxo-2-(R,S)-(2-oxo-3-tetrahydrothienyl-carbamoyl)-2,6-diazabicyclo[3.2.0]heptane-6-sulphonic acid sodium salt]
β-lactamase
  IC50: 79 nM
Citrobacter freundii
  MIC: 2 µg/mL

## O=C(NC1CCS(=O)(=O)C1)N1CC[C@@H]2[C@H]1C(=O)N2S(=O)(=O)[O-].[Na+] (mixture of isomers) [17(x), (1S,5R)-2-[(R) and (S)-1,1-Dioxo-tetrahydrothiophen-3-ylcarbamoyl]-7-oxo-2,6-diaza-bicyclo[3.2.0]heptane-6-sulfonic acid sodium salt]
β-lactamase; [1]
  IC50: 199 nM
Citrobacter freundii
  MIC: 2 µg/mL

## O=C(NCC1CCCO1)N1CC[C@@H]2[C@H]1C(=O)N2S(=O)(=O)[O-].[Na+] (mixture of isomers) [17(y), (1S,5R)-2-[(R) and (S)-Tetrahydrofuran-2-ylmethylcarbamoyl]-7-oxo-2,6-diaza-bicyclo[3.2.0]heptane-6-sulfonic acid sodium salt]
β-lactamase; [1]
  IC50: 238 nM
Citrobacter freundii
  MIC: 1 µg/mL

## NC(C(=O)N1CC[C@@H]2[C@H]1C(=O)N2S(=O)(=O)O)c1cccs1 (single isomer, unassigned) [5(e), (1S,5R)-2-[(R or S)-α-Amino-(2-thienyl)acetyl]-7-oxo-2,6-diazabicyclo[3.2.0]heptane-6-sulphonic acid]
β-lactamase
  IC50: 85 nM
Citrobacter freundii
  MIC: 2 µg/mL

## CC(=O)NC(C(=O)N1CC[C@@H]2[C@H]1C(=O)N2S(=O)(=O)O)c1ccccc1 (single isomer, unassigned) [5(g), (1S,5R)-2-[D- or L-N-Acetyl-2-phenylglycyl]-7-oxo-2,6-diazabicyclo[3.2.0]-heptane-6-sulphonic acid sodium salt]
β-lactamase
  IC50: 150 nM
Citrobacter freundii
  MIC: 8 µg/mL

## N[C@@H](C(=O)N1CC[C@@H]2[C@H]1C(=O)N2S(=O)(=O)O)c1ccccc1 [4(b), (1S,5R)-7-Oxo-2-(D-2-phenylglycyl)-6-2,6-diazabicyclo[3.2.0]heptane-6-sulphonic acid]
β-lactamase
  IC50: 250 nM
Citrobacter freundii
  MIC: 2 µg/mL

## N[C@H](C(=O)N1CC[C@@H]2[C@H]1C(=O)N2S(=O)(=O)O)c1ccccc1 [4(d), (1S,5R)-7-Oxo-2-(L-2-phenylglycyl)-2,6-diazabicyclo[3.2.0]heptane-6-sulphonic acid]
β-lactamase
  IC50: 275 nM
Citrobacter freundii
  MIC: 2 µg/mL

## N[C@H](Cc1ccccc1)C(=O)N1CC[C@@H]2[C@H]1C(=O)N2S(=O)(=O)O [4(f), (1S,5R)-7-Oxo-2-(3-phenyl-D-alanyl)-2,6-diazabicyclo[3.2.0]heptane-6-sulphonic acid]
β-lactamase
  IC50: 280 nM
Citrobacter freundii
  MIC: 4 µg/mL

## O=C(CNc1ccccc1)N1CC[C@@H]2[C@H]1C(=O)N2S(=O)(=O)[O-].[Na+] [5(b), (1S,5R)-7-Oxo-2-(N-phenylglycyl)-2,6-diazabicyclo[3.2.0]heptane-6-sulphonic acid sodium salt]
β-lactamase; [1]
  IC50: 110 nM
Citrobacter freundii
  MIC: 2 µg/mL

## Nc1cccc(NCC(=O)N2CC[C@@H]3[C@H]2C(=O)N3S(=O)(=O)O)c1 [5(i), (1S,5R)-2-[N-(m-Aminophenyl)glycyl] -7-oxo-2,6-diazabicyclo[3.2.0]heptane-6-sulphonic acid]
β-lactamase
  IC50: 115 nM
Citrobacter freundii
  MIC: 2 µg/mL

## Cn1nnnc1SCC(=O)N1CC[C@@H]2[C@H]1C(=O)N2S(=O)(=O)[O-].[Na+] [5(j), (1S,5R)-2-[[(1-Methyl-1H-tetrazol-5-yl)-thio]acetyl]-7-oxo-2,6-diazabicyclo[3.2.0]heptane-6-sulphonic acid sodium salt]
β-lactamase; [1]
  IC50: 23 nM
Citrobacter freundii
  MIC: 0.5 µg/mL

## O=C(COn1nnc2ccccc21)N1CC[C@@H]2[C@H]1C(=O)N2S(=O)(=O)[O-].[Na+] [5(k), (1S,5R)-2-[[1H-Benzotriazol-1-yl)oxylacetyl]-7-oxo-2,6-diazabicyclo[3.2.0]-heptane-6-sulphonic acid sodium salt]
β-lactamase; [1]
  IC50: 73 nM
Citrobacter freundii
  MIC: 2 µg/mL

## CC(C)n1nnc(CC(=O)N2CC[C@@H]3[C@H]2C(=O)N3S(=O)(=O)[O-])n1.[Na+] [5(l), (1S,5R)-2-[(2-Isopropyl-2H-tetrazol-5-yl)-acetyl]-7-oxo-2,6-diazabicyclo[3.2.0]heptane-6-sulphonic acid sodium salt]
β-lactamase; [1]
  IC50: 860 nM
Citrobacter freundii
  MIC: 4 µg/mL

## Cc1nnc(SCC(=O)N2CC[C@@H]3[C@H]2C(=O)N3S(=O)(=O)[O-])s1.[Na+] [5(m), (1S,5R)-2-[[(5-Methyl-1,3,4-thiadiazol-2-yl)thio]acetyl]-7-oxo-2,6-diazabicyclo[3.2.0]heptane-6-sulphonic acid sodium salt]
β-lactamase; [1]
  IC50: 24 nM
Citrobacter freundii
  MIC: 0.5 µg/mL

## O=C(COc1ccc(O)nn1)N1CC[C@@H]2[C@H]1C(=O)N2S(=O)(=O)[O-].[Na+] [5(p), (1S,5R)-2-[(6-Hydroxy-pyridazin-3-yloxy)-acetyl]-7-oxo-2,6-diazabicyclo[3.2.0]heptane-6-sulfonic acid sodium salt]
β-lactamase; [1]
  IC50: 178 nM
Citrobacter freundii
  MIC: 1 µg/mL

## O=C(CSc1nnnn1-c1ccccc1)N1CC[C@@H]2[C@H]1C(=O)N2S(=O)(=O)O [5(q), (1S,5R)-7-Oxo-2-[(1-phenyl-tetrazol)-5-ylsulfanyl-acetyl]-2,6-diazabicyclo[3.2.0]heptane-6-sulfonic acid sodium salt]
β-lactamase
  IC50: 5 nM
Citrobacter freundii
  MIC: 2 µg/mL

## N[C@@H](C(=O)N1CC[C@@H]2[C@H]1C(=O)N2S(=O)(=O)O)c1ccc(O)cc1 [6(d), (1S,5R)-2-[D-2-(p-Hydroxyphenyl)glycyl]-7-oxo-2,6-diazabicyclo[3.2.0]-heptane-6-sulphonic acid]
β-lactamase
  IC50: 500 nM
Citrobacter freundii
  MIC: 2 µg/mL

## CCN(CC)CC.O=C(/C=C/c1c[nH]c2ccccc12)N1CC[C@@H]2[C@H]1C(=O)N2S(=O)(=O)O [6(f), (1S,5R)-2-[(E)-3-(3-Indolyl)acryloyl]-7-oxo-2,6-diazabicyclo[3.2.0]heptane-6-sulphonic acid triethylamine salt (1:1)]
β-lactamase; isolated β-lactamase of Citrobacter freundii, substrate nitrocefin 0.1 mM, 15 minutes pre-incubation with inhibitor, 37° C., pH 7.0, read-out: IC 50 nM
  IC50: 11 nM
Citrobacter freundii
  MIC: 4 µg/mL

## N[C@@H](Cc1c[nH]c2ccccc12)C(=O)N1CC[C@@H]2[C@H]1C(=O)N2S(=O)(=O)O [6(h), (1S,5R)-7-Oxo-2-L-tryptophanyl-2,6-diazabicyclo[3.2.0]heptane-6-sulphonic acid]
β-lactamase
  IC50: 6 nM
Citrobacter freundii
  MIC: 1 µg/mL

## O=C(Cc1cccnc1)N1CC[C@@H]2[C@H]1C(=O)N2S(=O)(=O)[O-].[Na+] [6(i), (1S,5R)-7-Oxo-2-(3-pyridylacetyl)-2,6-diazabicyclo[3.2.0]-heptane-6-sulphonic acid sodium salt]
β-lactamase; [1]
  IC50: 700 nM
Citrobacter freundii
  MIC: 4 µg/mL

## N[C@@H](C(=O)N1CC[C@@H]2[C@H]1C(=O)N2S(=O)(=O)O)c1cccc(O)c1 [6(p), (1S,5R)-2-[R-2-(m-Hydroxyphenyl)glycyl]-7-oxo-2,6-diazabicyclo[3.2.0]heptane-6-sulphonic acid]
β-lactamase
  IC50: 56 nM
Citrobacter freundii
  MIC: 2 µg/mL

## O=C(/C=C/c1ccc(O)c(O)c1)N1CC[C@@H]2[C@H]1C(=O)N2S(=O)(=O)O [6(u), (1S,5R)-(E)-2-[3-(3,4Dihydroxy)phenyl)acryloyl)]-7-oxo-2,6-diazabicyclo[3.2.0]heptane-6-sulfonic acid sodium salt]
β-lactamase
  IC50: 40 nM
Citrobacter freundii
  MIC: 2 µg/mL
